In PMC7593906, “Synthesis and HPLC-ECD Study of Cytostatic Condensed O,N-Heterocycles Obtained from 3-Aminoflavanones” (Biomolecules, 2020):

Columns and labels:
WM35 melanoma cell line = assay: MTT assay, viability of WM35 cells; assay type: cell-based, human; conditions: for IC50: MTT assay, cells treated daily for 3 days; for EC20 (logistic fit) / EC80 (logistic fit): WM35, MTT dose-response fit, treated daily for 3 days, SI figures; for antiproliferative activity at 50 μM concentration: WM35, 50 μM, monitored at 24 and 72 h (Figure S263)
Description: (§1) The number of viable cells was indirectly determined by measuring the conversion of the tetrazolium salt MTT (3-{4,5-dimethilthiasol-2-il}-2,5-diphenyltetrasolium bromide, Sigma-Aldrich) to formazan by mitochondrial dehydrogenases. Cells were plated in 96-well multi-titer plates (10,000 cells per well density) in quadruplicates and were cultured for 3 days and treated by the compounds daily. Negative control group was treated with equal amount of vehicle solvent (DMSO) and positive control group was treated with 1 µg/mL doxorubicin. Cells were then incubated with 5 mg/mL MTT for 3 h, precipitated formazan crystals were dissolved in acidic isopropanol (10% 1 M HCl in isopropanol supplemented with 10% Triton X 100), and concentration of formazan was assessed colorimetrical way measuring absorbance at 565 nm.
(§2) Logistic dose-response curves were fitted using the equation y = A2 + (A1-A2)/(1 + (x/x0)^p) where the parameters are: A1: initial value (ymin), A2: final value (ymax), x0: center (EC/IC50), and p is the calculated power. Fittings were carried out and parameters were calculated using Origin 8.6 (OriginLab Corporation, Northampton, MA, USA).

[1] = test system: non-cancerous HaCaT human keratinocytes; assay: MTT assay, viability of HaCaT keratinocytes; assay type: cell-based; set-up: EC20 (logistic fit) / EC80 (logistic fit): unit not given here; conditions: for EC20 (logistic fit) / EC80 (logistic fit): MTT dose-response fit, treated daily for 3 days, SI figures; for IC50: MTT assay, cells treated daily for 3 days
Description: as §1, §2

[2] = test system: A2780 ovarian carcinoma cell line; assay: MTT assay, viability of A2780 cells; assay type: cell-based, human; conditions: for IC50: MTT assay, cells treated daily for 3 days; for antiproliferative activity at 50 μM concentration: A2780, 50 μM, monitored at 24 and 72 h (Figure S262)
Description: as §1, §2

[3] = test system: acute myeloid leukemia cells; set-up: method as in PMID 31744877; conditions: across 30 human cell lines; read-out: EC50, viability of acute myeloid leukemia cells; cited from earlier work
[4] = test system: chemoresistant forms of prostate cancer; set-up: method as in PMID 23423838; conditions: cited from earlier work
[5] = test system: A2780 ovarian carcinoma cells; assay: CyQUANT cell proliferation assay, total DNA content; assay type: cell-based, human; conditions: A2780, 24 hrs incubation
Description: 2.14. CyQUANT® Cell Proliferation Assay
CyQUANT assay assesses the cellular proliferation indirectly by directly determining the DNA content in a cell population using CyQUANT fluorescent dye. […] Therefore, it is suitable to asses DNA synthesis associated with cellular proliferation. Cells were plated in 96-well multi-titer plates (10,000 cells per well density) in quadruplicates and were incubated for 24 h with various concentrations of rac-19g, then assayed for cellular proliferation following the manufacturer’s protocol. Briefly, supernatants were gently removed and the plate was snap frozen and stored at −70 °C. Then plate was thawed, cells were lysed and incubated with CyQUANT dye. The excess of the dye was removed and fluorescence was measured at 490/520 nm (excitation/emission) using a FlexStation 3 (Molecular Devices) multimodal microplate reader.

[6] = test system: A2780 ovarian carcinoma cells; assay: MitoProbe DilC1(5) assay, mitochondrial membrane potential; assay type: cell-based, human; conditions: A2780, 24 hrs incubation
From the text: (§3) 2.13. MitoProbe^TM DilC1(5) Assay and SYTOX Green Labeling
(§4) Decrease in mitochondrial membrane potential is an early hallmark of apoptosis and the disruption of the plasma membrane integrity is characteristic for cellular necrosis. These events were investigated simultaneously using MitoProbe^TM DilC1(5) assay kit and SYTOX green (both from Molecular Probes/ThermoiFisher) staining, respectively. DilC1(5) (1,1′,3,3,3′,3′-hexamethylindodicarbo - cyanine iodide) is a fluorescent cyanine dye which penetrates cytoplasm with intact membrane and accumulates primarily in mitochondria depending on the mitochondrial membrane potential. […] SYTOX Green is a nucleic acid stain impermeant to live cells with intact plasma membrane, but it penetrates the compromised membrane of necrotic, dead cells resulting in a bright green fluorescent nuclear staining.
(§5) Cells were plated in 96-well multi-titer plates (10,000 cells per well density) in quadruplicates and were incubated for 24 h with various concentrations of rac-19g. […] Finally, the excess of the dyes was removed, cells were gently washed in PBS, and fluorescence of DilC1(5) and SYTOX Green was measured at 630/680 nm and 490/520 nm (excitation/emission), respectively, using a FlexStation 3 (Molecular Devices) multimodal microplate reader.

[7] = test system: A2780 ovarian carcinoma cells; assay: SYTOX Green labeling, plasma membrane integrity; assay type: cell-based; conditions: A2780, 24 hrs incubation
From the text: as §3, §4, §5

[8] = A2780, MTT dose-response fit, treated daily for 3 days, SI figures

| SMILES | EC20 (logistic fit) (WM35 melanoma cell line) | EC80 (logistic fit) (WM35 melanoma cell line) | EC20 (logistic fit) ([1]; HaCaT) | EC80 (logistic fit) ([1]; HaCaT) | EC20 (logistic fit) [2, 8] | antiproliferative activity at 50 μM concentration (WM35 melanoma cell line) | antiproliferative activity at 50 μM concentration [2] | further results |
| --- | --- | --- | --- | --- | --- | --- | --- | --- |
| COc1cc(C2Oc3ccccc3-c3sc(C)nc32)cc(OC)c1OC (racemic) [rac-3e, (±)-2-methyl-4-(3,4,5-trimethoxyphenyl)-4H-chromeno[3,4-d][1,3]thiazole] | 0,11527 µM | 39,68998 µM | 3.395 | 11.45 | 1,58958 mM |  |  | IC50 (WM35 melanoma cell line; Homo sapiens, WM35, 72 h): 2.14 ± 1.85 µM; IC50 ([1]; Homo sapiens, HaCaT, 72 h): 6.23 ± 1.25 µM; IC50 ([2]; Homo sapiens, A2780, 72 h): 2.74 µM; IC50 [2]: 2.72 ± 0.48 µM; melting point: 113 to 115 °C |
| COc1ccc(C2Oc3ccccc3-c3sc(C)nc32)cc1 (racemic) [rac-3b, (±)-2-methyl-4-(4-methoxyphenyl)-4H-chromeno[3,4-d][1,3]thiazole] |  |  |  |  |  | much weaker activities | much weaker activities |  |
| CCOC(=O)c1c(C)[nH]c2c1-c1ccccc1OC2c1ccc(OC)c(OC)c1 (racemic) [rac-4c, (±)-ethyl 2-methyl-4-(3,4-dimethoxyphenyl)-3,4-dihydrochromeno[3,4-b]pyrrole-1-carboxylate] | 1,55024 µM | 43,44318 µM | 0.9397 | 4.167 | 2,14809 mM |  |  | IC50 (WM35 melanoma cell line): 8.21 ± 4.38 µM; IC50 [1]: 1.97 ± 0.29 µM; IC50 [2]: 5.34 ± 0.88 µM |
| CCCCCCCCCCCCCCCC(O)C(CO)NC(=O)CCl (stereo not shown) [SACLAC] |  |  |  |  |  |  |  | EC50 [3]: ~3 µM; growth of chemoresistant forms of prostate cancer [4]: inhibit the growth |
| COc1cccc2c1C(=O)c1c(O)c3c(c(O)c1C2=O)C[C@@](O)(C(=O)CO)C[C@@H]3O[C@H]1C[C@H](N)[C@H](O)[C@H](C)O1 [Doxorubicin, reference compound] |  |  |  |  |  |  |  | IC50 (WM35 melanoma cell line; Homo sapiens, WM35, 72 h): 0.14 µM; IC50 ([1]; Homo sapiens, HaCaT, 72 h): 0.03 µM; IC50 ([2]; Homo sapiens, A2780, 72 h): 0.07 µM |
| Cc1nc2c(s1)-c1ccccc1OC2c1ccc2ccccc2c1 (racemic) [rac-3g, (±)-2-methyl-4-(naphthalen-2-yl)-4H-chromeno[3,4-d][1,3]thiazole] |  |  |  |  |  | much weaker activities | much weaker activities | melting point: 129 to 130 °C |
| Cc1nc2c(s1)-c1ccccc1OC2c1ccccc1 (racemic) [rac-3a, (±)-2-methyl-4-phenyl-4H-chromeno[3,4-d][1,3]thiazole] |  |  |  |  |  | much weaker activities | much weaker activities |  |
| CCCCCCCCCCCCCCCC(O)C(CO)NC(=O)CBr (stereo not shown) [SABRAC] |  |  |  |  |  |  |  | EC50 [3]: ~3 µM; growth of chemoresistant forms of prostate cancer [4]: inhibit the growth |
| COc1cc(OC)cc([C@@H]2Oc3ccccc3[C@H]3OCCN[C@H]32)c1 (racemic) [rac-(4aS*,5R*,10bS*)-2d, (±)-(4aR*,5S*,10bR*)-5-(3,5-dimethoxyphenyl)-2,3,4,4a,5,10b-hexahydrochromeno[4,3-b][1,4]oxazine] | 14,15843 µM | 53,361 µM | 11.28 | 81.84 | 10,79361 mM | the most active | the most active | IC50 [1]: 30.4 ± 49.8 µM |
| CCOC(=O)c1c(C)[nH]c2c1-c1ccccc1OC2c1ccc2ccccc2c1 (racemic) [rac-4g, (±)-ethyl 2-methyl-4-(naphthalen-2-yl)-3,4-dihydrochromeno[3,4-b]pyrrole-1-carboxylate] |  |  |  |  |  |  |  | melting point: 149 to 151 °C |
| COc1ccc([C@@H]2Oc3ccccc3[C@@H]3OCCN[C@@H]23)cc1.Cl (racemic) [rac-(4aS*,5R*,10bR*)-2b, (±)-(4aR*,5S*,10bS*)-5-(4-methoxyphenyl)-2,3,4,4a,5,10b-hexahydrochromeno[4,3-b][1,4]oxazine hydrochloride] | 26,114 µM | 43,39258 µM | 7.569 | 38.76 | 6,72446 mM | the most active | the most active | IC50 [1]: 17.1 ± 7.95 µM; IC50 [2]: 10.4 ± 2.71 µM |
| CCOC(=O)c1c(C)[nH]c2c1-c1ccccc1OC2c1ccc(OC)cc1 (racemic) [rac-4b, (±)-ethyl 2-methyl-4-(4-methoxyphenyl)-3,4-dihydrochromeno[3,4-b]pyrrole-1-carboxylate] | 1,2746 µM | 26,63177 µM | 2.492 | 36.73 | 1,99005 mM |  |  | IC50 (WM35 melanoma cell line): 5.83 ± 1.78 µM; IC50 [1]: 9.57 ± 8.77 µM; IC50 [2]: 4.84 ± 1.38 µM |
| O=C(CCl)N[C@@H]1[C@@H](O)c2ccccc2O[C@H]1c1ccc2ccccc2c1 (racemic) [rac-19g, (±)-2-chloro-N-[(2R*,3S*,4R*)-4-Hydroxy-2-(naphthalen-2-yl)-3,4-dihydro-2H-chromen-3-yl]acetamide] | 1,26314 µM | 9,68285 µM |  |  | 0,01488 mM |  |  | IC50 (WM35 melanoma cell line; Homo sapiens, WM35, 72 h): 3.5 ± 1.94 µM; proliferation-associated DNA synthesis (CyQUANT Assay) [5]: inhibited proliferation-associated DNA synthesis; IC50 ([1]; Homo sapiens, HaCaT, 72 h): 6.06 ± 3.3 µM; EC50 ([2]; Homo sapiens, 72 h, A2780, MTT dose-response fit, treated daily for 3 days, SI figures, read-out: EC50 (x0 of logistic fit) (converted)): 0.151 µM; IC50 ([2]; Homo sapiens, A2780, 72 h): 0.15 ± 0.14 µM; mitochondrial membrane potential [DilC1(5) staining] [6]: decreased the mitochondrial membrane potential; integrity of the plasma membrane (SYTOX Green staining) [7]: intact (negative SYTOX Green staining) |
| COc1ccc(C2Oc3ccccc3-c3sc(C)nc32)cc1OC (racemic) [rac-3c, (±)-2-methyl-4-(3,4-dimethoxyphenyl)-4H-chromeno[3,4-d][1,3]thiazole] |  |  |  |  |  | much weaker activities | much weaker activities |  |
